The text below walks through data of ChEMBL document CHEMBL3785005, “Novel triazole hybrids of myrrhanone C, a natural polypodane triterpene: Synthesis, cytotoxic activity and cell based studies” (Eur J Med Chem, 2016).

Format in all cases: functional, cell-based
For one test, the system named is A549. Description: Cytotoxicity against human A549 cells assessed as cell viability after 48 hrs by MTT assay. The note with it: A549, 48 h. In general terms: Tetrazolium dyes change colour on reduction, which living cells bring about.
Another test has as its system HeLa. Description: Cytotoxicity against human HeLa cells assessed as cell viability after 48 hrs by MTT assay.
The test system of a further test is HepG2. Kind of test: Cytotoxicity against human HepG2 cells assessed as cell viability after 48 hrs by MTT assay. The note with it: HepG2, 48 h.
The subject of the next test is MCF7. Description: Cytotoxicity against human MCF7 cells assessed as cell viability after 48 hrs by MTT assay. The settings on record: MCF7, 48 h.
The nature of test [1]: Cytotoxicity against human DU145 cells assessed as cell viability after 48 hrs by MTT assay. The note with it: DU-145, 48 h.

For `CC(C)=CCC/C(C)=C/CC/C(C)=C/CC[C@@H]1[C@@]2(C)C/C(=C\c3ccc(OCc4cn(-c5ccc(F)c(Cl)c5)nn4)cc3)C(=O)C(C)(C)[C@@H]2CC[C@@]1(C)O`, the IC50 with A549 worked out at 46.6 µM; in the test with HeLa, 43 µM; in the test with HepG2 it was 40.2 µM; in the test with MCF7, 46.5 µM; in test [1], 28.4 µM.

For `CC(C)=CCC/C(C)=C/CC/C(C)=C/CC[C@@H]1[C@@]2(C)CC/C(=N\OCc3cn(-c4ccccc4C#N)nn3)C(C)(C)[C@@H]2CC[C@@]1(C)O`, the half-maximal inhibitory concentration (IC50) in the test on A549 amounted to 19.9 µM; in the test with HeLa it was 21.2 µM; with HepG2 it was 21.9 µM; with MCF7 it was 24.9 µM; in test [1] it was 25.1 µM.

`CC(C)=CCC/C(C)=C/CC/C(C)=C/CC[C@@H]1[C@@]2(C)C/C(=C\c3ccc(OCc4cn(-c5cccc(Br)c5)nn4)cc3)C(=O)C(C)(C)[C@@H]2CC[C@@]1(C)O`: the half-inhibitory concentration (IC50) with A549 was 33.8 µM; in the test with HeLa it was 37.1 µM; with HepG2, 23.7 µM; in the test with MCF7, 61 µM; in test [1], 40.5 µM.

Regarding `CC(C)=CCC/C(C)=C/CC/C(C)=C/CC[C@@H]1[C@@]2(C)CCC(=O)C(C)(C)[C@@H]2CC[C@@]1(C)O`, the concentration for half-maximal inhibition (IC50) with A549 turned out to be 12 µM; in the test with HeLa, 18.3 µM; in the test with HepG2 it was 26.6 µM; with MCF7, 16.2 µM; in test [1], 13.2 µM.

As for `CC(C)=CCC/C(C)=C/CC/C(C)=C/CC[C@@H]1[C@@]2(C)C/C(=C\c3ccc(OCc4cn(-c5cccc([N+](=O)[O-])c5)nn4)cc3)C(=O)C(C)(C)[C@@H]2CC[C@@]1(C)O`, the half-inhibitory concentration (IC50) in the test with A549 amounted to 126 µM; in the test on HeLa, 32.9 µM; with HepG2, 117 µM; with MCF7, 79.4 µM; in test [1] it was 46.4 µM.

`CC(C)=CCC/C(C)=C/CC/C(C)=C/CC[C@@H]1[C@@]2(C)CC/C(=N\OCc3cn(-c4cccc(C(F)(F)F)c4)nn3)C(C)(C)[C@@H]2CC[C@@]1(C)O`: the IC50 with A549 worked out at 12.9 µM; in the test on HeLa, 12.5 µM; in the test with HepG2 it was 22.7 µM; in the test with MCF7, 21.4 µM; in test [1], 11.8 µM.

In the case of `CC(C)=CCC/C(C)=C/CC/C(C)=C/CC[C@@H]1[C@@]2(C)C/C(=C\c3ccc(OCc4cn(-c5ccc(Cl)cc5)nn4)cc3)C(=O)C(C)(C)[C@@H]2CC[C@@]1(C)O`, the IC50 in the test with A549 is 83.2 µM; in the test with HeLa, 50.7 µM; in the test on HepG2, 123 µM; with MCF7 it was 72.4 µM; in test [1] it was 79.4 µM.

In the case of `CC(C)=CCC/C(C)=C/CC/C(C)=C/CC[C@@H]1[C@@]2(C)CC/C(=N\OCc3cn(-c4ccc(Cl)cc4)nn3)C(C)(C)[C@@H]2CC[C@@]1(C)O`, the half-maximal inhibitory concentration (IC50) in the test on A549 turned out to be 12.3 µM; in the test on HeLa, 14.8 µM; in the test with HepG2, 19.9 µM; with MCF7 it was 12.4 µM; in test [1] it was 16.2 µM.

`CC(C)=CCC/C(C)=C/CC/C(C)=C/CC[C@@H]1[C@@]2(C)C/C(=C\c3ccc(OCc4cn(-c5cccc(O)c5)nn4)cc3)C(=O)C(C)(C)[C@@H]2CC[C@@]1(C)O`: the IC50 in the test on A549 was 110 µM; in the test with HeLa, 158 µM; in the test on HepG2 it was 26.9 µM; in the test with MCF7, 45.5 µM; in test [1] it was 40.6 µM.

With `CC(C)=CCC/C(C)=C/CC/C(C)=C/CC[C@@H]1[C@@]2(C)CC/C(=N\OCc3cn(-c4ccc(F)cc4)nn3)C(C)(C)[C@@H]2CC[C@@]1(C)O`, the IC50 with A549 came to 18 µM; in the test with HeLa, 21.4 µM; in the test on HepG2, 63.1 µM; in the test on MCF7, 25.9 µM; in test [1], 21.6 µM.

For `CC(C)=CCC/C(C)=C/CC/C(C)=C/CC[C@@H]1[C@@]2(C)CC/C(=N\OCc3cn(-c4cccc(O)c4)nn3)C(C)(C)[C@@H]2CC[C@@]1(C)O`, the 50% inhibitory concentration (IC50) in the test on A549 was 12.8 µM; in the test on HeLa, 13.5 µM; with HepG2 it was 21.2 µM; in the test on MCF7 it was 9.9 µM; in test [1], 17.5 µM.

Consider `COc1cc(OC)c(-n2cc(COc3ccc(/C=C4\C[C@]5(C)[C@@H](CC/C=C(\C)CC/C=C(\C)CCC=C(C)C)[C@](C)(O)CC[C@H]5C(C)(C)C4=O)cc3)nn2)c(OC)c1`, for which the IC50 with A549 came to 16.1 µM; in the test on HeLa, 17.5 µM; in the test on HepG2, 57.5 µM; in the test on MCF7 it was 13.5 µM; in test [1], 12 µM.

For the molecule `CC(C)=CCC/C(C)=C/CC/C(C)=C/CC[C@@H]1[C@@]2(C)CC/C(=N\OCc3cn(-c4ccc(F)c(F)c4F)nn3)C(C)(C)[C@@H]2CC[C@@]1(C)O`, the IC50 in the test with A549 was 26.9 µM; in the test with HeLa, 26.2 µM; in the test with HepG2 it was 37.7 µM; in the test on MCF7, 32.2 µM; in test [1], 30.4 µM.

With `CC(C)=CCC/C(C)=C/CC/C(C)=C/CC[C@@H]1[C@@]2(C)C/C(=C\c3ccc(OCc4cn(-c5ccccc5)nn4)cc3)C(=O)C(C)(C)[C@@H]2CC[C@@]1(C)O`, the 50% inhibitory concentration (IC50) amounted to 100 µM with A549; 36.3 µM in the test with HeLa; 126 µM in the test on HepG2; 23 µM in the test on MCF7; 21 µM in test [1].

For `CC(C)=CCC/C(C)=C/CC/C(C)=C/CC[C@@H]1[C@@]2(C)CC/C(=N\OCc3cn(-c4ccc(F)c(Cl)c4)nn3)C(C)(C)[C@@H]2CC[C@@]1(C)O`, the half-maximal inhibitory concentration (IC50) was 21.4 µM in the test with A549; 20.1 µM in the test on HeLa; 58.9 µM in the test with HepG2; 31.4 µM with MCF7; 26.9 µM in test [1].

Consider `CC(C)=CCC/C(C)=C/CC/C(C)=C/CC[C@@H]1[C@@]2(C)C/C(=C\c3ccc(OCc4cn(-c5cccc(C(F)(F)F)c5)nn4)cc3)C(=O)C(C)(C)[C@@H]2CC[C@@]1(C)O`, for which the IC50 stood at 23.2 µM in the test with A549; 17.3 µM in the test on HeLa; 27.6 µM with HepG2; 13.8 µM in the test on MCF7; 9.33 µM in test [1].

For the molecule `CC(C)=CCC/C(C)=C/CC/C(C)=C/CC[C@@H]1[C@@]2(C)CC/C(=N\OCc3cn(-c4c(Cl)cc([N+](=O)[O-])cc4Cl)nn3)C(C)(C)[C@@H]2CC[C@@]1(C)O`, the half-maximal inhibitory concentration (IC50) amounted to 11.2 µM in the test on A549; 23 µM in the test with HeLa; 34.9 µM in the test with HepG2; 16.6 µM with MCF7; 16.4 µM in test [1].

Turning to `CC(C)=CCC/C(C)=C/CC/C(C)=C/CC[C@@H]1[C@@]2(C)C/C(=C\c3ccc(OCc4cn(-c5c(Cl)cc([N+](=O)[O-])cc5Cl)nn4)cc3)C(=O)C(C)(C)[C@@H]2CC[C@@]1(C)O`, the IC50 in the test with A549 was found to be 34.7 µM; with HeLa it was 36.9 µM; with HepG2, 25.1 µM; with MCF7, 27.1 µM; in test [1], 20.9 µM.

Take `CC(C)=CCC/C(C)=C/CC/C(C)=C/CC[C@@H]1[C@@]2(C)CC/C(=N\OCc3cn(-c4cccc(Br)c4)nn3)C(C)(C)[C@@H]2CC[C@@]1(C)O`: the IC50 in the test on A549 amounted to 11.7 µM; with HeLa it was 15.7 µM; in the test with HepG2, 39.8 µM; with MCF7 it was 24.8 µM; in test [1] it was 14.6 µM.

With `CC(C)=CCC/C(C)=C/CC/C(C)=C/CC[C@@H]1[C@@]2(C)C/C(=C\c3ccc(OCc4cn(-c5ccccc5C#N)nn4)cc3)C(=O)C(C)(C)[C@@H]2CC[C@@]1(C)O`, the 50% inhibitory concentration (IC50) with A549 was found to be 61.6 µM; with HeLa, 100 µM; in the test with HepG2, 63.1 µM; in the test with MCF7, 29.9 µM; in test [1], 25.1 µM.

As to `CC(C)=CCC/C(C)=C/CC/C(C)=C/CC[C@@H]1[C@@]2(C)C/C(=C\c3ccc(OCc4cn(-c5ccncc5)nn4)cc3)C(=O)C(C)(C)[C@@H]2CC[C@@]1(C)O`, the half-maximal inhibitory concentration (IC50) in the test with A549 amounted to 34 µM; in the test with HeLa, 77.6 µM; in the test with HepG2, 105 µM; in the test with MCF7 it was 37.5 µM; in test [1], 25.7 µM.

On to `COc1cccc2c1C(=O)c1c(O)c3c(c(O)c1C2=O)C[C@@](O)(C(=O)CO)C[C@@H]3O[C@H]1C[C@H](N)[C@H](O)[C@H](C)O1` [DOXORUBICIN], for which the IC50 in the test on A549 is 2.81 µM; in the test with HeLa, 2.57 µM; with HepG2, 3.01 µM; in test [1], 1.41 µM.

Consider `COc1cccc(-n2cc(CO/N=C3\CC[C@]4(C)[C@@H](CC/C=C(\C)CC/C=C(\C)CCC=C(C)C)[C@](C)(O)CC[C@H]4C3(C)C)nn2)c1`, for which the half-maximal inhibitory concentration (IC50) was 21.7 µM in the test on A549; 22.9 µM in the test with HeLa; 51.3 µM in the test with HepG2; 25.4 µM in the test with MCF7; 30.5 µM in test [1].

Consider `CC(C)=CCC/C(C)=C/CC/C(C)=C/CC[C@@H]1[C@@]2(C)CC/C(=N\OCc3cn(-c4ccncc4)nn3)C(C)(C)[C@@H]2CC[C@@]1(C)O`, for which the IC50 stood at 13 µM in the test with A549; 18.8 µM with HeLa; 22 µM in the test on HepG2; 12.6 µM in the test with MCF7; 17.4 µM in test [1].

With `COc1cccc(-n2cc(COc3ccc(/C=C4\C[C@]5(C)[C@@H](CC/C=C(\C)CC/C=C(\C)CCC=C(C)C)[C@](C)(O)CC[C@H]5C(C)(C)C4=O)cc3)nn2)c1`, the IC50 amounted to 45.7 µM with A549; 16.2 µM in the test with HeLa; 50.1 µM with HepG2; 16.6 µM in the test with MCF7; 14.5 µM in test [1].

For the molecule `CC(C)=CCC/C(C)=C/CC/C(C)=C/CC[C@@H]1[C@@]2(C)C/C(=C\c3ccc(OCc4cn(-c5ccc(F)cc5)nn4)cc3)C(=O)C(C)(C)[C@@H]2CC[C@@]1(C)O`, the IC50 with A549 came to 55.2 µM; with HeLa, 126 µM; in the test on HepG2 it was 35.9 µM; in the test on MCF7, 42 µM; in test [1] it was 33.6 µM.

With `CC(C)=CCC/C(C)=C/CC/C(C)=C/CC[C@@H]1[C@@]2(C)CC/C(=N\OCc3cn(-c4cccc([N+](=O)[O-])c4)nn3)C(C)(C)[C@@H]2CC[C@@]1(C)O`, the IC50 worked out at 14.8 µM in the test with A549; 18.4 µM with HeLa; 22 µM with HepG2; 20.7 µM with MCF7; 17.4 µM in test [1].

Usually IC50 stands for the point on the concentration scale where inhibition reaches its midpoint.
